Where “and” joins values, the source holds several entries; their conditions need not be identical. Equal entries are not always repeated.
Key:
HEK293T cells [1] = assay: Effect of drugs on protein production (Luciferase reporter, constitutive Gal4-Rel65); type: cell-based; conditions: Suppl Fig 5b
Experimental: Supplementary Figure 5: Drug toxicity assessment. […]
HEK293T cells. The HEK293T cells were transfected with the Luciferase reporter and constitutive Gal4-Rel65 expression plasmid (pCMV-Gal4-Rel65-pA). Drugs were added to the transfected cells 24 hours post-transfection, quantification of luciferase activity 24 hours after the addition of the drugs. Each bar represents the mean of three biological replicates ± s.d overlaid with a scatter dot plot of the original […]

HEK293T cells [2] = assay: CCK8 cell viability assay; type: cell-based; conditions: for Normalization of Supplementary Figure5a (CCK8 absorbance): in % (unit assumed); for Absorbance at 450nm (CCK8 colormetric assay): Suppl Fig 5a
Experimental: A cell counting kit-8 (CCK-8) assay (Sigma) was used to measure the cytotoxicity of three drugs on HEK293T cells. 10,000 cells per well were pre-seeded into 96 well plates in 100 µl complete culture medium. The culture medium was changed into drug containing medium with drug concentrations of 0 µM (0.1% DMSO),1 µM, 5 µM and 10 µM. After 24 h drug incubation, 10 µl WST-8 solution was added to each well for 4 h incubation under standard conditions. The absorbance at 450 nm was determined by a multiplate reader (Tecan Infinite 500).
Supplementary Figure 5: Drug toxicity assessment. a) Drug effects on cell viability of HEK293T cells. HEK293T cells were added different concentrations of drugs for an incubation period of 24 hours. WST-8 was added 24 h after drug incubation and the absorbance at 450 nm was measured 4 h later. […]

[3] = system: JAK/STAT pathway SEAP expression in HEK293T cells; assay: AIR-GEMS ON-switch SEAP assay; conditions: Fig S11a; 100 nM Drug-2
Experimental: We fused the AIR components in the ectodomains of the GEMS and measured SEAP activity as a reporter for drug-triggered activation.
HEK293T cells were maintained in DMEM medium with 10% FBS (Gibco) and Pen/Strep (Thermo Fisher). Cells were maintained and split every two days at around 80% confluence. HEK293T cells were seeded 24 h before transfection, and transfected with the lipofectamine 3000 kit (Thermo Fisher). Plasmids were cotransfected according to the Table S7. For the drug OFF-switch experiments, drugs were added 12 h post transfection and incubated with cells for 24 h before the SEAP detection assay.
Representative data of cellular assays are presented as individual values and mean values (bars). n = 3 refers to biological replicates. All IC50/EC50 values of cellular assays (CDH-TF, CDH-GEMS, AIR-TF and AIR-GEMS) reported were calculated using four-parameter nonlinear regression ± s.d.
Bcl2 mutants were cloned into the AIR-GEMS

[4] = system: SEAP expression in HEK293T cells; assay: Background signal of SEAP reporter and single-construct controls; type: cell-based
Experimental: Supplementary Figure 7: Dose-dependence and reversibility characterization of CDHs in CDH- […]
transfected with SEAP reporter S132 and treated with 1 µM Drugs 12 hours post transfection.
Quantification of SEAP was performed 24 hours after drug treatment. b) Drug specificity of CDH-TFs. […]
Background signal of SEAP reporter in the absence of the CDH-GEMS system. HEK293T cells were transfected with pLS566 SEAP reporter plasmids and treated with drugs. Quantification of SEAP was performed 24 hours post drug treatment. f) SEAP activity upon transfecting single or paired […]
Quantification of SEAP activity of three CDHs with DMSO (dark color), specific (light color) and unspecific drug treatment (gray). […]
(culture medium) in panels of b, c, f and g were collected every 12 hours. Values were normalized to zero based on the SEAP expression at time 0. a, b, e, f, g) The bar charts show the mean ± s.d. of n = 3 biologically independent samples overlaid with a scatter dot plot of the original data points.

[5] = target: T1, LD3 in the presence of Drug-1 (Homo sapiens, UniProt Q07817, DEL45-84/F105I/R102E); assay: SPR pre-screening and competition of Drug-1 resistant Bcl-XL mutants binding LD3; conditions: 5 µM receptor mixed with 10 µM Drug-1
T1 construct: 6xHis (N); made in house; host or cells: E. coli BL21(DE3)
Experimental: Supplementary Figure 10: Biophysical and cellular characterization of designed Drug-1- […]
a) Pre-screening of Drug-1 resistant Bcl-XL mutants by SPR. 5 µM of Bcl-XL and five mutants were mixed with 10 µM of Drug-1 and injected over the LD3 immobilized chip to analyse the binding response. […]
dilutions of Drug-1 were pre-mixed with 4 µM LD3 and injected over iBcl-XL_v3 immobilized chip to collect the response. c) Dissociation constant measurement of iBcl-XL_v3 and LD3. Sensorgrams are in black dashed curves and the fitted curves in solid red lines. Kd was using a 1:1 binding model. d) […]
normalized to the positive control (DMSO group). […]

mdm2 = mdm2 (Homo sapiens, UniProt Q00987); design: method as in PMID 26768531; conditions: read-out: reported binding affinity to mdm2; cited from earlier work
Sequence of mdm2 (Q00987 26-109 limits assumed): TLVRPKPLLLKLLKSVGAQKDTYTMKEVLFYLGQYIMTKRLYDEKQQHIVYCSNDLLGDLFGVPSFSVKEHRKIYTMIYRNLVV

T1 sequence (Q07817 with tags, fused parts or gaps DEL45-84/R102E/F105I limits assumed): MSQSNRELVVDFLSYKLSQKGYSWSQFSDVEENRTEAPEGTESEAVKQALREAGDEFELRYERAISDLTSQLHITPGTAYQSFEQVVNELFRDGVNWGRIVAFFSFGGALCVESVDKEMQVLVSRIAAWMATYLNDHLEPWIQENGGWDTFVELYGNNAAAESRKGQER

Compound | Luciferase production (luminescence) (HEK293T cells [1]; 1 µM) | Luciferase production (luminescence) (HEK293T cells [1]; 5 µM) | Luciferase production (luminescence) (HEK293T cells [1]; 10 µM) | Normalization of Supplementary Figure5a (CCK8 absorbance) (HEK293T cells [2]; 1 µM) | Normalization of Supplementary Figure5a (CCK8 absorbance) (HEK293T cells [2]; 5 µM) | Normalization of Supplementary Figure5a (CCK8 absorbance) (HEK293T cells [2]; 10 µM) | Absorbance at 450nm (CCK8 colormetric assay) (HEK293T cells [2]; 1 µM) | Absorbance at 450nm (CCK8 colormetric assay) (HEK293T cells [2]; 5 µM) | Absorbance at 450nm (CCK8 colormetric assay) (HEK293T cells [2]; 10 µM) | further results
CN(C)CC#Cc1ccc(OCCCc2sc(N3CCc4cccc(C(=O)Nc5nc6ccccc6s5)c4C3)nc2C(=O)O)c(F)c1 [Drug1] | 298584 and 267400 and 264776 | 259902 and 193284 and 231257 | 268448 and 250247 and 248473 | 107.788 and 102.052 and 84.2322 | 106.001 and 108.808 and 85.1912 | 101.677 and 96.2978 and 81.5907 | 1.2364 and 1.1706 and 0.9662 | 1.2159 and 1.2481 and 0.9772 | 1.1663 and 1.1046 and 0.9359 | 
CC1(C)CCC(CN2CCN(c3ccc(C(=O)NS(=O)(=O)c4ccc(NCC5CCOCC5)c([N+](=O)[O-])c4)c(Oc4cnc5[nH]ccc5c4)c3)CC2)=C(c2ccc(Cl)cc2)C1 [Drug2] | 239858 and 221880 and 230049 | 235551 and 211876 and 214947 | 249510 and 226877 and 232289 | 91.0979 and 90.3939 and 94.3325 | 94.2973 and 98.0561 and 96.7732 | 95.7875 and 97.7823 and 95.6546 | 2.3291 and 2.3111 and 2.4118 | 2.4109 and 2.507 and 2.4742 | 2.449 and 2.5 and 2.4456 | 
Bcl2 |  |  |  |  |  |  |  |  |  | Reporter signal, 100 nM Drug-2 [3]: 0.7857 and 0.8309 and 0.7087; Reporter signal, single constructs vs pair ([4]; Suppl Fig 7f, CDH2): 12.2479 and 10.8467 and 9.94; Reporter signal, single constructs vs pair ([4]; Suppl Fig 7g (so in the source), CDH2): 12.2479 and 10.8467 and 9.94
Bcl-XL: wildtype drug receptor protein of CDH-1 |  |  |  |  |  |  |  |  |  | Reporter signal, single constructs vs pair ([4]; Suppl Fig 7f, CDH1): 17.1033 and 16.0472 and 16.2645; Reporter signal, single constructs vs pair ([4]; Suppl Fig 7g (so in the source), CDH1): 17.1033 and 16.0472 and 16.2645; inhibition by Drug-1 of binding to LD3 immobilized chip [5]: complete inhibition
stapled p53 peptide: stapled p53 peptide (PDB 5afg) used as input peptide motif (LTFAEYWAQLAS) |  |  |  |  |  |  |  |  |  | Kd (mdm2): 12 ± 3 nM
